Measured values as given in patent publication US9187762B2, “Compositions and methods comprising sequences having hydroxyphenylpyruvate dioxygenase (HPPD) activity” (PIONEER HI-BRED INTERNATIONAL, INC., priority 2010, dated 2015).

B1: GE010883: Sorghum bicolor variant HPPD with maize motif substitutions, SEQ ID NO: 459 (protein)
chain: MPPTPTTAAATGAAVAAASAEQAAFRLVGHRNFVRVNPRSDRFHTLAFHHVELWCADAASAAGRFSFGLGAPLAARSDLSTGNTAHASLLLRSGALAFLFTAPYAHGADAATASLPSFSAAEARRFAADHGLAVRAVALRVADAEDAFRASVAAGARPAFEPVELGLGFRLAEVELYGDVVLRYVSYPDDADASFLPGFVGVTSPGAADYGLRRFDHIVGNVPELAPAAAYMAGFTGFHEFAEFTAEDVGTTESGLNSMALANNAENVLLPLNEPVHGTKRRSQIQTYLDHHGGPGVQHIALASDDVLRTLREMQARSAMGGFEFLPPPLSEYYDGVRRCAGDVLTEAQIKECQELGVMVDRDDQGVLLQIFTKPVGDRPTLFLEIIQRIGCMEKDEKGQEYQKGGCGGFGKGNFGQLFKSIEDYEKSLEAKQAAAAQGS
modifications: HPPD variant

What was measured:
soybean plants = assay: Herbicide spray tests of transgenic HPPD soy plants (T1/T2) with multiple HPPD-inhibitor herbicides, visual injury; type: in vivo; settings: for Soybean Response (% Injury): Elite Line Nontransgenic, foliar, V1 stage; for Soybean Response (% Injury), Null: T1 soybean PHP45921A D0223903 SEQ ID NO: 3, null segregants; for Soybean Response (% Injury), Positive: T1 soybean PHP45921A D0223903 SEQ ID NO: 3, positive segregants
Experimental: T1 plants were evaluated for zygosity. Homozygous single-locus transgenic plants and their corresponding null segregants were identified and T2 true breeding seed was obtained from each. Plants were grown to the V1 to V2 growth stage and then sprayed with the commercial formulation of mesotrione, tembotrione, topramezone, and isoxaflutole. All treatments were applied with nonionic surfactant and ammonium sulfate in a spray volume of 374 L/ha. Multiple rates of each herbicide were applied so a response range could be used to compare the relative tolerance of the different herbicides as well as the relative tolerance of homozygous nulls and positives for each event. The herbicide response for individual treated plants was evaluated by comparing to untreated plants of similar genetic background. Herbicide response ratings were eight days after treatment. Visual injury was on a scale of 0 to 100% injury (0=no effect to 100=dead plant).
T1 soybean plants expressing D0223903 (SEQ ID NO: 3) driven by a synthetic promoter (as described in U.S. Pat. No. 6,072,050) were evaluated with qPCR for the presence of the transgene and null and positive segregants selected. Plants were sprayed at the V1 growth stage with the commercial formulations of mesotrione, tembotrione, topramezone, and isoxaflutole. Two rates of each herbicide were applied foliarly with nonionic surfactant and ammonium sulfate in a spray volume of 374 L/ha. The herbicide response for individual plants was determined by comparing to untreated plants of similar genetic background. Visual injury was on a scale of 0 to 100% injury (0=no effect to 100=dead plant).

S. bicolor HPPD = assay: ON/OFF rate ratio insensitivity parameters of HPPD with maize motif substitutions; type: biochemical, Sorghum bicolor
Experimental: [formula] Higher KD (reduced affinity or increased insensitivity) can be attained with a numerically smaller ON rate, a larger OFF rate or both. […] The ratio of the reaction rate with inhibitor to that without inhibitor during the 70 to 90 second interval of the reaction was termed the “ON rate ratio”. […] Incubations with the same concentrations of enzyme but no mesotrione were done in parallel. After 1 hr at room temperature, 5 to 10 ul of the enzyme-inhibitor complex was dispensed into the wells of the assay plate. Reactions were started with the addition of 290 to 295 ul of 25 mM Hepes, pH 7, 2 mM ascorbate, 10 uM FeSO4, 100 uM HPP and 50 nM HGD. The reactions were monitored at 320 nm for 12 min. Reaction velocity accelerates as inhibitor is released from the enzyme until a steady state is reached, during which the reaction velocity is constant. The ratio of the steady state rate in mixtures containing mesotrione (or other herbicidal inhibitor) to the initial velocity of mixtures lacking inhibitor is termed the “OFF rate ratio”. Another parameter to record is the time span required for the reactions with inhibitor to reach the steady state. […] It is not certain that the steady state attained in the OFF rate reactions actually represents an equilibrium where OFF rates are now equal to ON rates. Because substrate and inhibitors bind in the same site, the high concentration of substrate present may competitively trap the inhibitor and prevent it from binding again. To be sure that improvement in ON rates is being taken into account, the ON and OFF rate ratios were multiplied together and the product is termed the “insensitivity parameter”.

Molecule	Soybean Response (% Injury) (soybean plants; rate 105 g ai/ha) [%]	Soybean Response (% Injury) (soybean plants; rate 210 g ai/ha) [%]	Soybean Response (% Injury), Null (soybean plants; rate 105 g ai/ha) [%]	Soybean Response (% Injury), Null (soybean plants; rate 210 g ai/ha) [%]	Soybean Response (% Injury), Positive (soybean plants; rate 105 g ai/ha) [%]	Soybean Response (% Injury), Positive (soybean plants; rate 210 g ai/ha) [%]	Soybean Response (% Injury) (soybean plants; rate 26.25 g ai/ha) [%]	Soybean Response (% Injury), Null (soybean plants; rate 26.25 g ai/ha) [%]	Soybean Response (% Injury), Positive (soybean plants; rate 26.25 g ai/ha) [%]	also measured
CS(=O)(=O)c1ccc(C(=O)C2C(=O)CCCC2=O)c([N+](=O)[O-])c1 [Mesotrione]	65	75	80	83	10	20				
Cc1c(C(=O)c2cnn(C)c2O)ccc(S(C)(=O)=O)c1C1=NOCC1 [Topramezone]							78	75	5	Soybean Response (% Injury) (soybean plants; rate 52.5 g ai/ha): 78%; Soybean Response (% Injury), Null (soybean plants; rate 52.5 g ai/ha): 78%; Soybean Response (% Injury), Positive (soybean plants; rate 52.5 g ai/ha): 20%
CS(=O)(=O)c1ccc(C(=O)C2C(=O)CCCC2=O)c(Cl)c1COCC(F)(F)F [Tembotrione]	70	78	75	75	40	33				
CS(=O)(=O)c1cc(C(F)(F)F)ccc1C(=O)c1cnoc1C1CC1 [Isoxaflutole]							72	78	5	Soybean Response (% Injury) (soybean plants; rate 13.12 g ai/ha): 70%; Soybean Response (% Injury), Null (soybean plants; rate 13.12 g ai/ha): 80%; Soybean Response (% Injury), Positive (soybean plants; rate 13.12 g ai/ha): 15%
B1										improvement of insensitivity vs native protein (S. bicolor HPPD; mesotrione): 6.13 fold; improvement of insensitivity vs native protein (S. bicolor HPPD; tembotrione): 7.71 fold
